Test results as given in PubChem BioAssay (NCI).
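Method: 48-hour compound exposure of cells in 96-well plates, five concentrations, linear interpolation of endpoints. Definition used: TGI = concentration required for complete inhibition of growth.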

Legend:
Assay in all cases: DTP human tumour cell line panel, 48 h
[1] = system: HL-60(TB) leukemia
[2] = system: MCF7 breast
[3] = system: HOP-92 NSCLC
[4] = system: A549 NSCLC
[5] = system: HCC-2998 colon
[6] = system: TK-10 renal
[7] = system: UACC-62 melanoma
[8] = system: NCI-H460 lung
[9] = system: ACHN renal
[10] = system: SK-OV-3 ovarian
[11] = system: RXF 393 renal
[12] = system: OVCAR-4 ovarian
[13] = system: M14 melanoma
[14] = system: UACC-257 melanoma
[15] = system: HCT-15 colon
[16] = system: UO-31 renal
[17] = system: NCI-H23 lung
[18] = system: OVCAR-8 ovarian
[19] = system: EKVX NSCLC
[20] = system: CAKI-1 renal
[21] = system: NCI-H522 lung
[22] = system: U251 CNS
[23] = system: IGROV1 ovarian
[24] = system: MALME-3M melanoma
[25] = system: KM12 colon
[26] = system: RPMI-8226 leukemia
[27] = system: 786-0 renal
[28] = system: COLO 205 colon
[29] = system: DU-145 prostate
[30] = system: SK-MEL-5 melanoma
[31] = system: SW-620 colon
[32] = system: SF-295 CNS
[33] = system: HCT-116 colon
[34] = system: SF-268 CNS
[35] = system: LOX IMVI melanoma
[36] = system: SN12C renal
[37] = system: K-562 leukemia
[38] = system: SR leukemia
[39] = system: T-47D breast
[40] = system: HS 578T breast
[41] = system: SNB-19 CNS
[42] = system: OVCAR-5 ovarian
[43] = system: MDA-MB-435
[44] = system: NCI-H226 lung
[45] = system: PC-3 prostate
[46] = system: MDA-MB-231 breast
[47] = system: SNB-75 CNS
[48] = system: NCI/ADR-RES ovarian
[49] = system: HOP-62 NSCLC
[50] = system: SF-539 CNS
[51] = system: OVCAR-3 ovarian
[52] = system: HT29 colon
[53] = system: MDA-N
[54] = system: SK-MEL-28 melanoma
[55] = system: CCRF-CEM leukemia
[56] = system: A498 renal
[57] = system: MOLT-4 leukemia

CCCCCCCc1c(Cl)nc(Cl)nc1Cl
TGI [1]: 5.34 µM
TGI [2]: 26.9 µM
TGI [3]: 11.4 µM
TGI [4]: 32.8 µM
TGI [5]: 17 µM
TGI [6]: 26.7 µM
TGI [7]: 20.5 µM
TGI [8]: 27.8 µM
TGI [9]: 20.8 µM
TGI [10]: 18.5 µM
TGI [11]: 6.26 µM
TGI [12]: 9.87 µM
TGI [13]: 4.71 µM
TGI [14]: 23.3 µM
TGI [15]: 10.1 µM
TGI [16]: 17.3 µM
TGI [17]: 10.2 µM
TGI [18]: 5.18 µM
TGI [19]: 22.2 µM
TGI [20]: 5.36 µM
TGI [21]: 3.85 µM
TGI [22]: 9.89 µM
TGI [23]: 4.83 µM
TGI [24]: 8.83 µM
TGI [25]: 25 µM
TGI [26]: 8.85 µM
TGI [27]: 10.2 µM
TGI [28]: 17.9 µM
TGI [29]: 27.4 µM
TGI [30]: 14.8 µM
TGI [31]: 6.21 µM
TGI [32]: 31.6 µM
TGI [33]: 9.2 µM
TGI [34]: 16.3 µM
TGI [35]: 4.49 µM
TGI [36]: 4.65 µM
TGI [37]: 4.16 µM
TGI [38]: 3.14 µM
TGI [39]: 30.4 µM
TGI [40]: 33.2 µM
TGI [41]: 24.4 µM
TGI [42]: 21 µM
TGI [43]: 5.94 µM
TGI [44]: 4.68 µM
TGI [45]: 23.7 µM
TGI [46]: 9.54 µM
TGI [47]: 28.9 µM
TGI [48]: 13.3 µM
TGI [49]: 33.2 µM
TGI [50]: 23.5 µM
TGI [51]: 17.1 µM
TGI [52]: 13.6 µM
TGI [53]: 13.1 µM
TGI [54]: 18.6 µM
TGI [55]: 2.66 µM
TGI [56]: 34.6 µM
TGI [57]: 3.51 µM

CCOC(=O)C(NC(=O)CC)(Nc1ccc(S(=O)(=O)Nc2ncccn2)cc1)C(F)(F)F (configuration not stated)
TGI [1]: > 100 µM
TGI [2]: > 100 µM
TGI [3]: > 100 µM
TGI [4]: > 100 µM
TGI [5]: > 100 µM
TGI [7]: > 100 µM
TGI [8]: > 100 µM
TGI [9]: > 100 µM
TGI [10]: > 100 µM
TGI [11]: > 100 µM
TGI [12]: > 100 µM
TGI [13]: > 100 µM
TGI [14]: > 100 µM
TGI [15]: > 100 µM
TGI [16]: > 100 µM
TGI [17]: > 100 µM
TGI [18]: > 100 µM
TGI [19]: > 100 µM
TGI [20]: > 100 µM
TGI [21]: > 100 µM
TGI [22]: > 100 µM
TGI [23]: > 100 µM
TGI [24]: > 100 µM
TGI [25]: > 100 µM
TGI [26]: > 100 µM
TGI [27]: > 100 µM
TGI [28]: > 100 µM
TGI [29]: > 100 µM
TGI [30]: > 100 µM
TGI [31]: > 100 µM
TGI [32]: > 100 µM
TGI [33]: > 100 µM
TGI [34]: > 100 µM
TGI [35]: > 100 µM
TGI [36]: > 100 µM
TGI [37]: > 100 µM
TGI [38]: > 100 µM
TGI [39]: > 100 µM
TGI [40]: > 100 µM
TGI [41]: > 100 µM
TGI [42]: > 100 µM
TGI [43]: > 100 µM
TGI [44]: > 100 µM
TGI [45]: > 100 µM
TGI [46]: > 100 µM
TGI [47]: > 100 µM
TGI [48]: > 100 µM
TGI [49]: > 100 µM
TGI [50]: > 100 µM
TGI [51]: > 100 µM
TGI [52]: > 100 µM
TGI [53]: > 100 µM
TGI [54]: > 100 µM
TGI [55]: > 100 µM
TGI [57]: > 100 µM
